A word on the IC50: it is the point on the concentration scale where inhibition reaches its midpoint.

For 42 compounds, IC50 results are on record in BindingDB's records for doi:10.1021/acs.jmedchem.0c01741 (Zhengzhou University, 2020).

The first series in a line: Inhibition of ABCB1 in multidrug-resistant human SW620/Ad300 cells assessed as increase in reversal of resistance to paclitaxel-induced cytotoxicity by measuring paclitaxel IC50 pre-incubated for 4 hrs followed by paclitaxel addition and measured after 72 hrs by MTT assay (Rvb = 4.23 +/- 0.6 uM). (Tetrazolium dyes change colour on reduction, which living cells bring about.)
On to `Cc1cc(Nc2ccc(F)cc2)n2nc(SCc3nc4ccccc4[nH]3)nc2n1`, for which the IC50 was found to be 0.022 µM.
The same measure, in the same setting: then `Cc1cc(Nc2ccc(C#N)cc2)n2nc(SCc3nc4ccccc4[nH]3)nc2n1`, with 0.59 µM; and `Cc1cc(Nc2ccc(C(=O)O)cc2)n2nc(SCc3nc4ccccc4[nH]3)nc2n1`, with 4.08 µM.
Take `COc1cc(Nc2cc(C)nc3nc(SCc4nc5ccccc5[nH]4)nn23)cc(OC)c1OC`: the IC50 was 0.25 µM.
The same measure, in the same setting: then `Cc1ccc(Nc2cc(C)nc3nc(SCc4nc5ccccc5[nH]4)nn23)cc1`, with 0.5 µM.
As to `Cc1cc(Nc2ccc(Br)cc2)n2nc(SCc3nc4ccccc4[nH]3)nc2n1`, the concentration for half-maximal inhibition (IC50) worked out at 0.45 µM.
The same measure, in the same setting: then `O=c1cc(-c2ccccc2)[nH]c2nc(SCc3nc4ccccc4[nH]3)nn12`, with 0.66 µM; and `Cc1cc(Nc2ccc(N3CCN(C)CC3)cc2)n2nc(SCc3nc4ccccc4[nH]3)nc2n1`, with 1.59 µM.
In the case of `Cc1cc(Nc2cc(C)[nH]n2)n2nc(SCc3nc4ccccc4[nH]3)nc2n1`, the IC50 was 1.57 µM.
Same read-out and setting: the same measure for `Cc1cc(Nc2ccc3c(C)cc(=O)oc3c2)n2nc(SCc3nc4ccccc4[nH]3)nc2n1`: 1.14 µM; for `C#Cc1cccc(Nc2cc(C)nc3nc(SCc4nc5ccccc5[nH]4)nn23)c1`: 1.43 µM; for `Cc1cc(Nc2ccc(O)cc2)n2nc(SCc3nc4ccccc4[nH]3)nc2n1`: 2.38 µM.
The same measure, in the same setting: the same measure for `COc1cccc(Nc2cc(C)nc3nc(SCc4nc5ccccc5[nH]4)nn23)c1`: 0.57 µM; for `COc1ccc(Nc2cc(C)nc3nc(SCc4nc5ccccc5[nH]4)nn23)cc1`: 0.32 µM; for `Cc1cc(Nc2ccc(Cl)cc2Cl)n2nc(SCc3nc4ccccc4[nH]3)nc2n1`: 0.71 µM.
On the same count and under the same terms, the same measure for `CC(=O)c1ccc(Nc2cc(C)nc3nc(SCc4nc5ccccc5[nH]4)nn23)cc1`: 0.76 µM; for `Cc1cc(Nc2ccc(OC(F)(F)F)cc2)n2nc(SCc3nc4ccccc4[nH]3)nc2n1`: 0.72 µM.
With `Cc1cc(Nc2ccc(C(F)(F)F)cc2)n2nc(SCc3nc4ccccc4[nH]3)nc2n1`, the IC50 stood at 0.85 µM.
Still for that read-out and setting: the same measure for `Cc1ccc(Nc2cc(C)nc3nc(SCc4nc5ccccc5[nH]4)nn23)c(F)c1`: 0.63 µM; for `Cc1cc(Nc2ccc(F)c(C)c2)n2nc(SCc3nc4ccccc4[nH]3)nc2n1`: 0.47 µM.
Same read-out and setting: then `Cc1cc(Nc2ccc(F)c(Cl)c2)n2nc(SCc3nc4ccccc4[nH]3)nc2n1`, with 0.77 µM; and `Cc1cc(Nc2cccc(F)c2)n2nc(SCc3nc4ccccc4[nH]3)nc2n1`, with 0.52 µM.
The same measure, in the same setting: then `Cc1cc(Nc2ccccc2F)n2nc(SCc3nc4ccccc4[nH]3)nc2n1`, with 0.22 µM; and `Cc1cc(Nc2ccc(F)cc2)n2nc(SCC(=O)c3ccccc3)nc2n1`, with 1.26 µM.
In the case of `Cc1cc(Nc2ccc(F)cc2)n2nc(SCc3csc4ccc(Cl)cc34)nc2n1`, the IC50 is 2.84 µM.
For `Cc1cc(Nc2ccc(F)cc2)n2nc(SCC3CC3)nc2n1`, the IC50 is 4.11 µM.
Consider `C#CCSc1nc2nc(C)cc(Nc3ccc(F)cc3)n2n1`, for which the IC50 was determined as 3.36 µM.
As for `C=CCSc1nc2nc(C)cc(Nc3ccc(F)cc3)n2n1`, the IC50 worked out at 4.2 µM.
On the same count and under the same terms, the same measure for `CCCSc1nc2nc(C)cc(Nc3ccc(F)cc3)n2n1`: 3.54 µM.
The same measure, in the same setting: the same measure for `Cc1cc(Nc2ccc(F)cc2)n2nc(SCCCc3ccccc3)nc2n1`: 4.22 µM.
Regarding `Cc1cc(Nc2ccc(F)cc2)n2nc(SCCc3ccccc3)nc2n1`, the IC50 worked out at 1.55 µM.
Still for that read-out and setting: the same measure for `Cc1cc(Nc2ccc(F)cc2)n2nc(SCc3cccc4ccccc34)nc2n1`: 1.74 µM; for `Cc1cc(Nc2ccc(F)cc2)n2nc(SCc3c(Cl)cccc3Cl)nc2n1`: 1.93 µM.
On to `Cc1cc(Nc2ccc(F)cc2)n2nc(SCc3cccc([N+](=O)[O-])c3)nc2n1`, for which the half-maximal inhibitory concentration (IC50) was found to be 1.99 µM.
On to `Cc1cc(Nc2ccc(F)cc2)n2nc(SCc3ccc([N+](=O)[O-])cc3)nc2n1`, for which the IC50 amounted to 2.28 µM.
Same read-out and setting: then `Cc1cc(Nc2ccc(F)cc2)n2nc(SCc3ccc(C(F)(F)F)cc3)nc2n1`, with 2.57 µM.
As to `Cc1cc(Nc2ccc(F)cc2)n2nc(SCc3cccc(Br)c3)nc2n1`, the IC50 stood at 2.04 µM.
For `Cc1cc(Nc2ccc(F)cc2)n2nc(SCc3ccccc3Br)nc2n1`, the half-inhibitory concentration (IC50) came out at 1.64 µM.
On to `Cc1cc(Nc2ccc(F)cc2)n2nc(SCc3ccc(Br)cc3)nc2n1`, for which the half-inhibitory concentration (IC50) worked out at 1.37 µM.
For the compound `Cc1cc(Nc2ccc(F)cc2)n2nc(SCc3ccc(Cl)cc3)nc2n1`, the IC50 was 1.89 µM.
The same measure, in the same setting: the same measure for `Cc1cc(Nc2ccc(F)cc2)n2nc(SCc3ccc(F)cc3)nc2n1`: 1.27 µM; for `CC(C)c1cc(Nc2ccc(F)cc2)n2nc(SCc3ccccc3)nc2n1`: 1.44 µM.

A short description of the next series: Inhibition of ABCB1 (unknown origin) expressed in HEK293 cells assessed as increase in reversal of resistance to paclitaxel-induced cytotoxicity by measuring paclitaxel IC50 at 20 uM pre-incubated for 4 hrs followed by paclitaxel addition and measured after 72 hrs by MTT assay (Rvb = 91.40 +/- 23.32 nM).
Consider `Cc1cc(Nc2ccc(F)cc2)n2nc(SCc3nc4ccccc4[nH]3)nc2n1`, for which the concentration for half-maximal inhibition (IC50) was 0.005 µM.

A further series in a line: Inhibition of ABCB1 (unknown origin) expressed in HEK293 cells assessed as increase in reversal of resistance to paclitaxel-induced cytotoxicity by measuring paclitaxel IC50 at 10 uM pre-incubated for 4 hrs followed by paclitaxel addition and measured after 72 hrs by MTT assay (Rvb = 91.40 +/- 23.32 nM).
For the compound `Cc1cc(Nc2ccc(F)cc2)n2nc(SCc3nc4ccccc4[nH]3)nc2n1`, the IC50 was 0.01 µM.

Another series in a line: Inhibition of ABCB1 in multidrug-resistant human KB-C2 cells assessed as increase in reversal of resistance to paclitaxel-induced cytotoxicity by measuring paclitaxel IC50 at 20 uM pre-incubated for 4 hrs followed by paclitaxel addition and measured after 72 hrs by MTT assay (Rvb = 1886.37 +/- 243.05 nM).
In the case of `Cc1cc(Nc2ccc(F)cc2)n2nc(SCc3nc4ccccc4[nH]3)nc2n1`, the half-inhibitory concentration (IC50) came out at 0.0048 µM.

The next series is described as follows: Inhibition of ABCB1 in multidrug-resistant human KB-C2 cells assessed as increase in reversal of resistance to paclitaxel-induced cytotoxicity by measuring paclitaxel IC50 at 10 uM pre-incubated for 4 hrs followed by paclitaxel addition and measured after 72 hrs by MTT assay (Rvb = 1886.37 +/- 243.05 nM).
With `Cc1cc(Nc2ccc(F)cc2)n2nc(SCc3nc4ccccc4[nH]3)nc2n1`, the half-inhibitory concentration (IC50) turned out to be 0.022 µM.

A further series in a line: Inhibition of ABCB1 in multidrug-resistant human SW620/Ad300 cells assessed as increase in reversal of resistance to paclitaxel-induced cytotoxicity by measuring paclitaxel IC50 at 20 uM pre-incubated for 4 hrs followed by paclitaxel addition and measured after 72 hrs by MTT assay (Rvb = 4233.18 +/- 499.10 nM).
Take `Cc1cc(Nc2ccc(F)cc2)n2nc(SCc3nc4ccccc4[nH]3)nc2n1`: the IC50 came out at 0.022 µM.

Another series is described as follows: Inhibition of ABCB1 in multidrug-resistant human SW620/Ad300 cells assessed as increase in reversal of resistance to paclitaxel-induced cytotoxicity by measuring paclitaxel IC50 at 10 uM pre-incubated for 4 hrs followed by paclitaxel addition and measured after 72 hrs by MTT assay (Rvb = 4233.18 +/- 499.10 nM).
On to `Cc1cc(Nc2ccc(F)cc2)n2nc(SCc3nc4ccccc4[nH]3)nc2n1`, for which the IC50 turned out to be 0.0736 µM.
